One data set addresses Cytochrome P450 3A4 (Homo sapiens, UniProt P08684). Description: Inhibition of CYP3A4 (unknown origin). In kind it is ADME.
Data set [1] concerns the target Voltage-dependent L-type calcium channel subunit alpha-1C (Homo sapiens, UniProt Q13936). Description: Inhibition of Cav1.2 (unknown origin).
For another data set, the target named is Cytochrome P450 2C9 (Homo sapiens, UniProt P11712). Description: Inhibition of CYP2C9 (unknown origin). It counts as ADME.
Data set [2] can be described thus: Displacement of (2S)-N-(2-phenylphenyl)-1-[2-[1-(tritritiomethyl)benzimidazol-2-yl]sulfanylacetyl]pyrrolidine-2-carboxamide from human OX1 receptor Ile408-Val mutant expressed on CHO cell membrane measured after 3 hrs by TopCount method. In kind it is cell membranes.
For another data set, the target named is T1, Orexin receptor type 2 (Homo sapiens, UniProt O43614).
T1 sequence (O43614 whole entry): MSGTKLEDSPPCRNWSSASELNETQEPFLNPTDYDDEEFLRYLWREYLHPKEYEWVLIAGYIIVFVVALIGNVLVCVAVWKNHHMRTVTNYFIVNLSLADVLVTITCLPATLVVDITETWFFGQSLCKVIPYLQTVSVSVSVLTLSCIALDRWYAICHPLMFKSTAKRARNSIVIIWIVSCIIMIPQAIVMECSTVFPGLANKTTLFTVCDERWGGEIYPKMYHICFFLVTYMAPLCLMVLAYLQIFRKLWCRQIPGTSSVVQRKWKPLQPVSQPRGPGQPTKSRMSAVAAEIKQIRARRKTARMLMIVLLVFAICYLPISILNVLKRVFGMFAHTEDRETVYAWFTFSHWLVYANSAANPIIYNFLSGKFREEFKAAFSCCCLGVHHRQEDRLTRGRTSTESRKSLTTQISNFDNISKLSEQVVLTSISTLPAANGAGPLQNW
Description: Displacement of (2S)-N-(2-pyrrol-1-ylphenyl)-1-[2-[1-(tritritiomethyl)benzimidazol-2-yl]sulfanylacetyl]pyrrolidine-2-carboxamide from human OX2 receptor expressed on CHO cell membrane measured after 3 hrs by TopCount method. It counts as cell membranes.

The next data set relates to CHO. Kind of data set: Selectivity index, ratio of Ki for human OX2 receptor expressed on CHO cell membrane to Ki for Ile408-Val variant human OX1 receptor expressed on CHO cell membrane. It counts as cell-based.
A short description of data set [3]: Solubility of the compound. In kind it is physicochemical.

Some results are limits rather than exact numbers.

Sequence of Cytochrome P450 2C9 (P11712 whole entry): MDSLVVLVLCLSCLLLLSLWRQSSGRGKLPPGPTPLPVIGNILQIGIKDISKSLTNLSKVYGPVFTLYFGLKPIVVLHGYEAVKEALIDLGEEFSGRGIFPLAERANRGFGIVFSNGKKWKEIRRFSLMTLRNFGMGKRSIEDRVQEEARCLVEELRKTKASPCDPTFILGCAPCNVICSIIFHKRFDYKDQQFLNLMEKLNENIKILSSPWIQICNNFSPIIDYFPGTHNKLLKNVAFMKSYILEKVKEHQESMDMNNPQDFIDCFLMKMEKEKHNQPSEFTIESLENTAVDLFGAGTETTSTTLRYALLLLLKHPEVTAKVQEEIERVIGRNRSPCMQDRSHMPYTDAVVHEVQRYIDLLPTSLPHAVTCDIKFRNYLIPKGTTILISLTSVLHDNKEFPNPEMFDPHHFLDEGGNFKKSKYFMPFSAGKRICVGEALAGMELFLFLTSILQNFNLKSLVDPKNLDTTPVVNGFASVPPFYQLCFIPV
Sequence of Cytochrome P450 3A4 (P08684 whole entry): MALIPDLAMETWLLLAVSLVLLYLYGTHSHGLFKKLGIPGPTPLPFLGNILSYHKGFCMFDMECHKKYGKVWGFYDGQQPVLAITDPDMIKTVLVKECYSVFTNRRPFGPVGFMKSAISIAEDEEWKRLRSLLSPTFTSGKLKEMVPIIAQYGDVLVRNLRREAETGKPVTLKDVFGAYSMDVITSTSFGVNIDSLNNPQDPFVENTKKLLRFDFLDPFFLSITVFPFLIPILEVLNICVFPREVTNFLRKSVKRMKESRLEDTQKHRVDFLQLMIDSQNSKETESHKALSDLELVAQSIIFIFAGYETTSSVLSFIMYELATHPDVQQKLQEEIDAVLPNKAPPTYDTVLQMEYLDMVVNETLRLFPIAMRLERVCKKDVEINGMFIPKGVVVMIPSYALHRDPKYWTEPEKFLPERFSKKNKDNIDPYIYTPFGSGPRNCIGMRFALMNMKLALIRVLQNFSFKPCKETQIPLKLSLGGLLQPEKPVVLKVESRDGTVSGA
Sequence of Voltage-dependent L-type calcium channel subunit alpha-1C (Q13936 whole entry): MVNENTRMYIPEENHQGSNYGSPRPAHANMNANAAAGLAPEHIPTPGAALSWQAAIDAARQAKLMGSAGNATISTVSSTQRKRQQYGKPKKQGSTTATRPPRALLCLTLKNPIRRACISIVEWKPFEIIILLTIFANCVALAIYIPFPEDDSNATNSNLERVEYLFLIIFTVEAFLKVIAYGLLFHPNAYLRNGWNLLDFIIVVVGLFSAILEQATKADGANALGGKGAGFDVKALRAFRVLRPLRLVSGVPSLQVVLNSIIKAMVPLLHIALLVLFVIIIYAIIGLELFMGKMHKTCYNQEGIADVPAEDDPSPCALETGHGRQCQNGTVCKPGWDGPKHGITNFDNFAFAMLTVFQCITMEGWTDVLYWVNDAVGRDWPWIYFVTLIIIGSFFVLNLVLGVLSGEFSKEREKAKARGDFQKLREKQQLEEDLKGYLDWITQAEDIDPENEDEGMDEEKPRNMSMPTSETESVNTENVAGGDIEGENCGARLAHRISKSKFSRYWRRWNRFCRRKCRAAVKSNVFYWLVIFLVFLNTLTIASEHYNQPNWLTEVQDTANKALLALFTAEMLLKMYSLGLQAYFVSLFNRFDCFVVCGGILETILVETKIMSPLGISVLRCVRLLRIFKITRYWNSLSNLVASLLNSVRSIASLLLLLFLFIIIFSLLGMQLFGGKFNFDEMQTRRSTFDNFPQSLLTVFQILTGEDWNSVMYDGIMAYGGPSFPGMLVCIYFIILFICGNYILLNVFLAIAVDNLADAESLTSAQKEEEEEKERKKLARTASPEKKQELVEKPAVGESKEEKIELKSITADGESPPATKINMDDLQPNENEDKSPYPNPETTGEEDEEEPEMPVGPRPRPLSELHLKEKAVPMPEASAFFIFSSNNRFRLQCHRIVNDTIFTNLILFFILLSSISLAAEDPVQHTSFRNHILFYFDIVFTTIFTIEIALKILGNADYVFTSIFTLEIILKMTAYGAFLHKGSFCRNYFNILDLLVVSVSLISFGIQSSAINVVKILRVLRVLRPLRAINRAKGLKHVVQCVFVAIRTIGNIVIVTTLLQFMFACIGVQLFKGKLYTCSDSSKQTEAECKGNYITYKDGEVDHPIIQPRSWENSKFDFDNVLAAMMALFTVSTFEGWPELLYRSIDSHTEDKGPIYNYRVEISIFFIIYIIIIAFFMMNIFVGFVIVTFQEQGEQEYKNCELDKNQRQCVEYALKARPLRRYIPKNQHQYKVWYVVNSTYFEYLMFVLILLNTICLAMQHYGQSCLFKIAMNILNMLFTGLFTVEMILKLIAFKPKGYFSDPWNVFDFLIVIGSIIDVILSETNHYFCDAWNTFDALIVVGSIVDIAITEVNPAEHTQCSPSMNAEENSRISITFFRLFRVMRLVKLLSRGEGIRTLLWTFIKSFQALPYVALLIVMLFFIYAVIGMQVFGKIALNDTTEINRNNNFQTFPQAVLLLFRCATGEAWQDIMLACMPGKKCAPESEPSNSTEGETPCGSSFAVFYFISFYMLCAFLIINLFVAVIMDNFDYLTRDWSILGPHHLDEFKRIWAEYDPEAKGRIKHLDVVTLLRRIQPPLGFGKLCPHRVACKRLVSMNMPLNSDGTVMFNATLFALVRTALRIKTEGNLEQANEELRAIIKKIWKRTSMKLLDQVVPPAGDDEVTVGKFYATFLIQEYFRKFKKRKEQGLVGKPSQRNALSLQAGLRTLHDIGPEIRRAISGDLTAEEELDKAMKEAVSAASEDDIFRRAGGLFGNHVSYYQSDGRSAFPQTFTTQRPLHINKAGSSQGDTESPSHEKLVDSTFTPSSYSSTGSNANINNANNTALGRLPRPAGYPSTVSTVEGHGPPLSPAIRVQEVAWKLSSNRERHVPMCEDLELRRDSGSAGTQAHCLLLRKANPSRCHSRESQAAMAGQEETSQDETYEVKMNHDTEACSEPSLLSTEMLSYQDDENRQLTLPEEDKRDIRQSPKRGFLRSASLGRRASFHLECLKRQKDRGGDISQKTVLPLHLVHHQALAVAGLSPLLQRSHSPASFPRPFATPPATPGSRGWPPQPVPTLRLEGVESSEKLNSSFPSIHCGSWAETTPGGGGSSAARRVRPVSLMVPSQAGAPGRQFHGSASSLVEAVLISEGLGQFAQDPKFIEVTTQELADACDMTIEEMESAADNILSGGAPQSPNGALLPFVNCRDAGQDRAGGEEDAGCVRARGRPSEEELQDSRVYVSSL

In the case of `O=C(c1ccccc1-n1nccn1)N1CCC(F)(F)C(Oc2nc3ccccc3s2)C1` (stereo unspecified), the “inhibition (INH)” value (at Cytochrome P450 3A4; in data set [1]; against Cytochrome P450 2C9) was “Active” throughout. The Ki (usually a measure of affinity in units of concentration, obtained from inhibition or displacement) in data set [2] was determined as 2.3 nM; at Orexin receptor type 2, 220 nM. For the same compound, the Ratio Ki in the data set with CHO was 96. Further, the solubility result in data set [3] is reported as “Insoluble”.

For the compound `O=C(c1ccccc1-n1nccn1)N1CCC(F)(F)C(Oc2ccc3cccnc3n2)C1` (stereo unspecified), the “inhibition (INH)” value (against Cytochrome P450 3A4; in data set [1]; at Cytochrome P450 2C9) was “Active” each time. Also, the Ki in data set [2] is 1160 nM; on Orexin receptor type 2, above 1410 nM. In addition, the solubility entry in data set [3] is recorded as “Insoluble”.

For the compound `O=C(c1ccccc1-n1nccn1)N1CCC(F)(F)C(Oc2cc(C(F)(F)F)ccn2)C1` (stereo unspecified), the “inhibition (INH)” value (against Cytochrome P450 3A4; in data set [1]; at Cytochrome P450 2C9) was “Active” each time. Further, the Ki in data set [2] was 292 nM; on Orexin receptor type 2, 14 nM. Besides, in the data set on CHO, the Ratio Ki was 0.05. In addition, in data set [3], the solubility entry is on record as “Insoluble”.

Take `Cc1ccc(-c2ncccn2)c(C(=O)N2CC(COc3ccc(F)cn3)CC[C@H]2C)c1` (stereo partly specified): the Ki (in data set [2]; at Orexin receptor type 2) was 11 nM throughout. The Ratio Ki in the data set on CHO came to 1.1.

As to `O=C(c1cncc2[nH]ccc12)N1CCC(F)(F)[C@@H](Oc2ccc3ccccc3n2)C1`, the Ki in data set [2] is 0.28 nM; at Orexin receptor type 2, 108 nM. Besides, the Ratio Ki with CHO stood at 386.

In the case of `O=C(c1cccc2nccn12)N1CCC(F)(F)C(Oc2ccc3ccccc3n2)C1` (racemic), the results for the Ki (in data set [2]; at Orexin receptor type 2) were 564 nM and above 3330 nM, respectively. The Ratio Ki in the data set with CHO is above 6.

`COc1cccc(C(=O)N2CCC(F)(F)C(Oc3ccc4ccccc4n3)C2)c1` (racemic): the “inhibition (INH)” value (on Cytochrome P450 3A4; in data set [1]; against Cytochrome P450 2C9) was “Active” in each case. Moreover, the figures for the Ki (in data set [2]; at Orexin receptor type 2) were 9.1 nM and above 4380 nM, respectively. Also, the Ratio Ki in the data set on CHO is above 481. Further, in data set [3], the solubility entry is given as “Insoluble”.

For `O=C(c1ccnc2[nH]cnc12)N1CCC(F)(F)C(Oc2ccc3ccccc3n2)C1` (racemic), the Ki in data set [2] is 89 nM; on Orexin receptor type 2, above 5870 nM. Further, the Ratio Ki in the data set with CHO is above 65.

Regarding `O=C(c1cccc2cncn12)N1CCC(F)(F)C(Oc2ccc3ccccc3n2)C1` (racemic), the Ki in data set [2] is 52 nM; on Orexin receptor type 2 it was above 2100 nM. For the same compound, the Ratio Ki in the data set with CHO was above 40.

As to `COc1ccccc1C(=O)N1CCC(F)(F)C(Oc2ccc3ccccc3n2)C1` (racemic), the “inhibition (INH)” value (at Cytochrome P450 3A4; in data set [1]; against Cytochrome P450 2C9) was “Active” in each case. Moreover, the Ki is 24 nM in data set [2] and above 2630 nM at Orexin receptor type 2. Also, in the data set with CHO, the Ratio Ki is above 110. Moreover, the solubility entry in data set [3] is “Insoluble”.

Take `COc1ccc(F)c(C(=O)N2CCC(F)(F)C(Oc3ccc4ccccc4n3)C2)c1` (racemic): the INH stood at 6.7 µM at Cytochrome P450 3A4 and 10.8 µM on Cytochrome P450 2C9. In addition, in data set [1], the “inhibition (INH)” value is listed as “Active”. Moreover, the Ki in data set [2] worked out at 3.4 nM; at Orexin receptor type 2 it was 1620 nM. In addition, the Ratio Ki with CHO stood at 476. Also, the solubility result in data set [3] is recorded as “Insoluble”.

As to `COc1ccc(F)c(C(=O)N2CCC(F)(F)[C@@H](Oc3ccc4ccccc4n3)C2)c1F`, the INH at Cytochrome P450 3A4 came out at 6.7 µM; on Cytochrome P450 2C9 it was 10.8 µM. In addition, in data set [1], the “inhibition (INH)” value is listed as “Active”. In addition, the Ki is 1.1 nM in data set [2] and 1230 nM at Orexin receptor type 2. The Ratio Ki in the data set with CHO was determined as 1120. Moreover, the solubility entry in data set [3] is “Insoluble”.

Turning to `O=C(c1ccccc1-n1nccn1)N1CCC(F)(F)C(Oc2ccnc3ccccc23)C1` (stereo unspecified), the “inhibition (INH)” value (against Cytochrome P450 3A4; in data set [1]; against Cytochrome P450 2C9) was “Active” in each case. In addition, the Ki was 7970 nM in data set [2] and 277 nM on Orexin receptor type 2. Besides, the Ratio Ki in the data set with CHO was 0.035. Further, the solubility entry in data set [3] is “Insoluble”.

On to `O=C(c1ccccc1)N1CCC(F)(F)C(Oc2ccc3ccccc3n2)C1` (racemic), for which the “inhibition (INH)” value (on Cytochrome P450 3A4; in data set [1]; against Cytochrome P450 2C9) was “Active” in each case. Besides, the Ki in data set [2] was 55 nM; on Orexin receptor type 2, above 12700 nM. The Ratio Ki with CHO was above 230. Moreover, the solubility entry in data set [3] is on record as “Insoluble”.

Take `O=C(c1cccn2cncc12)N1CCC(F)(F)C(Oc2ccc3ccccc3n2)C1` (racemic): the values for the Ki (in data set [2]; at Orexin receptor type 2) were 2.9 nM and above 12700 nM, respectively. Besides, the Ratio Ki in the data set with CHO is above 439.

Consider `O=C(c1cccc(F)c1)N1CCC(F)(F)C(Oc2ccc3ccccc3n2)C1` (racemic), for which the “inhibition (INH)” value (against Cytochrome P450 3A4; in data set [1]; against Cytochrome P450 2C9) was “Active” throughout. The Ki in data set [2] was 91 nM; on Orexin receptor type 2, above 4380 nM. For the same compound, in the data set on CHO, the Ratio Ki was above 48. Further, the solubility entry in data set [3] is on record as “Insoluble”.

For the compound `O=C(c1ccccc1-n1nccn1)N1CCC[C@@H](Oc2ccc3ccccc3n2)C1`, the Ki in data set [2] was determined as 1.4 nM; at Orexin receptor type 2, 27 nM. The Ratio Ki with CHO was found to be 19.

With `O=C(c1cccc(-c2ncc[nH]2)c1)N1CCC(F)(F)[C@@H](Oc2ccc3ccccc3n2)C1`, the Ki in data set [2] amounted to 0.14 nM; on Orexin receptor type 2, 193 nM. Besides, in the data set with CHO, the Ratio Ki fell in the range of 1000 to 1380.

Consider `O=C(c1cccc(-n2cccn2)c1)N1CCC(F)(F)[C@@H](Oc2ccc3ccccc3n2)C1`, for which the Ki in data set [2] was found to be 1.1 nM; on Orexin receptor type 2, 627 nM. Further, the Ratio Ki in the data set with CHO worked out at 570.

In the case of `O=C(c1ccccc1-n1nccn1)N1CCC(F)(F)C(Oc2ccc3ccccc3n2)C1` (racemic), the results for the inhibitory constant (Ki) (in data set [2]; on Orexin receptor type 2) were 3.9 nM and 1140 nM, respectively. Besides, the Ratio Ki in the data set with CHO is 292.

`O=C(c1ccccc1-n1nccn1)N1CCC(F)(F)C(O)C1` (stereo unspecified): the results for the Ki (in data set [2]; on Orexin receptor type 2) were 2240 nM and above 3370 nM, respectively.

As for `O=C(c1cccc2ncccc12)N1CCC(F)(F)C(Oc2ccc3ccccc3n2)C1` (racemic), the Ki in data set [2] was determined as 140 nM; at Orexin receptor type 2 it was 861 nM. Also, in the data set on CHO, the Ratio Ki stood at 6.2.

With `O=C(c1ccccc1-n1nccn1)N1CCC(F)(F)C(Oc2cnc3ccccc3n2)C1` (stereo unspecified), the “inhibition (INH)” value (against Cytochrome P450 3A4; in data set [1]; against Cytochrome P450 2C9) was “Active” in each case. Further, the Ki worked out at 13 nM in data set [2] and 933 nM on Orexin receptor type 2. Also, the Ratio Ki with CHO amounted to 72. Moreover, in data set [3], the solubility result is “Insoluble”.

Consider `O=C(c1cccc(-n2nccn2)c1)N1CCC(F)(F)[C@@H](Oc2ccc3ccccc3n2)C1`, for which the Ki in data set [2] stood at 8.3 nM; at Orexin receptor type 2 it was 871 nM. For the same compound, the Ratio Ki in the data set on CHO turned out to be 104.

Consider `C[C@@H]1CC[C@@H](Oc2ccc3ccccc3n2)CN1C(=O)c1ccccc1-n1nccn1`, for which the results for the Ki (in data set [2]; on Orexin receptor type 2) were 3.9 nM and 9 nM, respectively. The Ratio Ki with CHO was determined as 2.3.

For `O=C(c1ccccc1-c1ncccn1)N1CCC(F)(F)[C@@H](Oc2ccc3ccccc3n2)C1`, the Ki is 1.8 nM in data set [2] and 281 nM on Orexin receptor type 2. The Ratio Ki with CHO stood at 156.

In data set [2], `COc1ccc(C[C@H]2c3cc(OC)c(OC)cc3CCN2[C@@H](C(=O)NC(C)C)c2ccccc2)cc1OC` gave a Ki of 6 nM.

The values are drawn from ChEMBL document CHEMBL3867477 (Bioorg Med Chem Lett, 2016).
